Broadly, the IC50 is the concentration at which inhibition is half-maximal.

Chain of Aurora B/INCENP (Q96GD4 whole entry): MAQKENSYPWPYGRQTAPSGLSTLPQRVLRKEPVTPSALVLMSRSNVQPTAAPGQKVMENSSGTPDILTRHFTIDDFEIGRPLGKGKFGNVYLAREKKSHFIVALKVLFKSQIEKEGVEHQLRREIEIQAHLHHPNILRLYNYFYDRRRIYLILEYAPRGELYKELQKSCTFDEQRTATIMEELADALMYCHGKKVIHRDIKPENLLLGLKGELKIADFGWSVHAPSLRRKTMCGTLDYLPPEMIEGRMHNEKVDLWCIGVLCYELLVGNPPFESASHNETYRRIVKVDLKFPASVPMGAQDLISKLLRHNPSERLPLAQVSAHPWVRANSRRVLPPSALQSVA
Chain of Aurora B/INCENP (Q9NQS7 whole entry partner): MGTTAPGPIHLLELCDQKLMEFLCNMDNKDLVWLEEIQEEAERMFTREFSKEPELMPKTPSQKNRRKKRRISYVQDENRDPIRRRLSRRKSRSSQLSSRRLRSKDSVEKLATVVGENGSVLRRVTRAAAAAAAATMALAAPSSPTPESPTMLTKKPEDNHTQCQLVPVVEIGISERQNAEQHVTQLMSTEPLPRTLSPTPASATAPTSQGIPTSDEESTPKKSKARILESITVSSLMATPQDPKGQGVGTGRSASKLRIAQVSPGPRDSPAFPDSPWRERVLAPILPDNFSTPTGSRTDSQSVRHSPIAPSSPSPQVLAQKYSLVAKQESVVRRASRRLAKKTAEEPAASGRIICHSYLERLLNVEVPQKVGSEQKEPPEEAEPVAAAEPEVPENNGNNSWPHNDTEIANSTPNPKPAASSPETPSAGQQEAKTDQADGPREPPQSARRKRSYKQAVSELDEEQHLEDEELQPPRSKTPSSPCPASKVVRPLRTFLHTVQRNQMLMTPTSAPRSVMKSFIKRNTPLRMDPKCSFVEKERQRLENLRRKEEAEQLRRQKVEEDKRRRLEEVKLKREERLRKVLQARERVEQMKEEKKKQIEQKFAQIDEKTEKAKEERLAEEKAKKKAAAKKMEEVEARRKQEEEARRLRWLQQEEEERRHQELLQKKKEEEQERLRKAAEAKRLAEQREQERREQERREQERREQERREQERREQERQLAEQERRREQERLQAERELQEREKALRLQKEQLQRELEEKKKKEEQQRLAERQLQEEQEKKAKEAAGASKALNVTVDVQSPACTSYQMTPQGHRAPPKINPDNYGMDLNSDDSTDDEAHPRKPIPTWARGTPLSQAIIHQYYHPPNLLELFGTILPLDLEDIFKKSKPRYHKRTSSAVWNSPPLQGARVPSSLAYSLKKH

This test has as its target Aurora B/INCENP (Homo sapiens, UniProt Q96GD4). As to the kind of experiment: Determination of inhibition of AIK: Aurora B/INCENP direct fluorescence polarization (IMAP) assay. In kind it is biochemical. As to conditions: 10 uM ATP, 0.8 nM Aurora B/INCENP; values given as bins; read-out: IC50 of Exemplified Compounds Against AIK B.
In the case of `Cc1cnc2[nH]c3c(OC[C@@H]4CN(C)CCO4)ccc(-c4cccc(S(=O)(=O)C5CC5)c4)c3c2c1` [Compound 370, (S)-2-((5-(3-(cyclopropylsulfonyl)phenyl)-3-methyl-9H-pyrido[2,3-b]indol-8-yloxy)methyl)-4-methylmorpholine], the half-inhibitory concentration (IC50) fell in the range of 4 to 5.5 nM.

Regarding `Cc1cnc2[nH]c3c(OC[C@H]4CN(C)CCO4)ccc(-c4cccc(S(=O)(=O)C5CC5)c4)c3c2c1` [Compound 371, (R)-2-((5-(3-(cyclopropylsulfonyl)phenyl)-3-methyl-9H-pyrido[2,3-b]indol-8-yloxy)methyl)-4-methylmorpholine], the IC50 was under 4 nM.

As to `Cc1cnc2[nH]c3c(OC[C@@H]4CN(CCOP(=O)(O)O)CCO4)ccc(-c4cccc(S(=O)(=O)C5CC5)c4)c3c2c1` [Compound 373, (S)-2-(2-((5-(3-(cyclopropylsulfonyl)phenyl)-3-methyl-9H-pyrido[2,3-b]indol-8-yloxy)methyl)morpholino)ethyl dihydrogen phosphate], the IC50 lay in the range of 4 to 5.5 nM.

For `Cc1cnc2[nH]c3c(OC[C@H]4CN(CCOP(=O)(O)O)CCO4)ccc(-c4cccc(S(=O)(=O)C5CC5)c4)c3c2c1` [Compound 375, (R)-2-(2-((5-(3-(cyclopropylsulfonyl)phenyl)-3-methyl-9H-pyrido[2,3-b]indol-8-yloxy)methyl)morpholino)ethyl dihydrogen phosphate], the IC50 is under 4 nM.

With `Cc1cnc2[nH]c3c(OC[C@H](O)CN4CCOCC4)ccc(-c4cccc(S(=O)(=O)C5CC5)c4)c3c2c1` [Compound 380, (R)-1-(5-(3-(cyclopropylsulfonyl)phenyl)-3-methyl-9H-pyrido[2,3-b]indol-8-yloxy)-3-morpholinopropan-2-ol], the IC50 lay in the range of 4 to 5.5 nM.

Consider `Cc1cnc2[nH]c3c(OC[C@@H](CN4CCOCC4)OP(=O)(O)O)ccc(-c4cccc(S(=O)(=O)C5CC5)c4)c3c2c1` [Compound 382, (R)-1-(5-(3-(cyclopropylsulfonyl)phenyl)-3-methyl-9H-pyrido[2,3-b]indol-8-yloxy)-3-morpholinopropan-2-yl dihydrogen phosphate], for which the IC50 is under 4 nM.

Take `CCS(=O)(=O)c1cccc(-c2ccc(O[C@H](C)CCO)c3[nH]c4ncc(C)cc4c23)c1` [Compound 388, (R)-3-(5-(3-(ethylsulfonyl)phenyl)-3-methyl-9H-pyrido[2,3-b]indol-8-yloxy)butan-1-ol]: the IC50 lay in the range of 4 to 5.5 nM.

`CCS(=O)(=O)c1cccc(-c2ccc(O[C@@H](C)CCO)c3[nH]c4ncc(C)cc4c23)c1` [Compound 389, (S)-3-(5-(3-(ethylsulfonyl)phenyl)-3-methyl-9H-pyrido[2,3-b]indol-8-yloxy)butan-1-ol]: the IC50 was 4 to 5.5 nM.

`CCS(=O)(=O)c1cccc(-c2ccc(O[C@@H](C)COP(=O)(O)O)c3[nH]c4ncc(C)cc4c23)c1` [Compound 391, (S)-2-(5-(3-(ethylsulfonyl)phenyl)-3-methyl-9H-pyrido[2,3-b]indol-8-yloxy)propyl dihydrogen phosphate]: the IC50 lay in the range of 4 to 5.5 nM.

Consider `Cc1cnc2[nH]c3c(OC[C@H](CO)CN(C)C)ccc(-c4cccc(S(=O)(=O)C5CC5)c4)c3c2c1` [Compound 401, (S)-3-(5-(3-(cyclopropylsulfonyl)phenyl)-3-methyl-9H-pyrido[2,3-b]indol-8-yloxy)-2-((dimethylamino)methyl)propan-1-ol], for which the IC50 is under 4 nM.

With `Cc1cnc2[nH]c3c(OC[C@@H](CO)CN(C)C)ccc(-c4cccc(S(=O)(=O)C5CC5)c4)c3c2c1` [Compound 402, (R)-3-(5-(3-(cyclopropylsulfonyl)phenyl)-3-methyl-9H-pyrido[2,3-b]indol-8-yloxy)-2-((dimethylamino)methyl)propan-1-ol], the 50% inhibitory concentration (IC50) is under 4 nM.

In the case of `Cc1cnc2[nH]c3c(O)ccc(-c4cccc(S(=O)(=O)C5CC5)c4)c3c2c1` [Compound 404, 5-(3-(cyclopropylsulfonyl)phenyl)-3-methyl-9H-pyrido[2,3-b]indol-8-ol], the IC50 is under 4 nM.
